# Results from PubChem BioAssay AID588465 (NMMLSC, 2011).
# Target: Beta-adrenergic receptor kinase 1 (Homo sapiens) (UniProt P25098)
# Experiment: inhibition of GRK2-catalyzed rhodopsin phosphorylation – biochemical, set 1, orthogonal assay for GRK2 aptamer-displacement inhibitor project, late-stage follow-up (AID 588465)
# Settings: 32P incorporation, ROS, at 200 µM, stronger effect = lower value
# Sequence of Beta-adrenergic receptor kinase 1 (Homo sapiens) (P25098 whole entry, looked up): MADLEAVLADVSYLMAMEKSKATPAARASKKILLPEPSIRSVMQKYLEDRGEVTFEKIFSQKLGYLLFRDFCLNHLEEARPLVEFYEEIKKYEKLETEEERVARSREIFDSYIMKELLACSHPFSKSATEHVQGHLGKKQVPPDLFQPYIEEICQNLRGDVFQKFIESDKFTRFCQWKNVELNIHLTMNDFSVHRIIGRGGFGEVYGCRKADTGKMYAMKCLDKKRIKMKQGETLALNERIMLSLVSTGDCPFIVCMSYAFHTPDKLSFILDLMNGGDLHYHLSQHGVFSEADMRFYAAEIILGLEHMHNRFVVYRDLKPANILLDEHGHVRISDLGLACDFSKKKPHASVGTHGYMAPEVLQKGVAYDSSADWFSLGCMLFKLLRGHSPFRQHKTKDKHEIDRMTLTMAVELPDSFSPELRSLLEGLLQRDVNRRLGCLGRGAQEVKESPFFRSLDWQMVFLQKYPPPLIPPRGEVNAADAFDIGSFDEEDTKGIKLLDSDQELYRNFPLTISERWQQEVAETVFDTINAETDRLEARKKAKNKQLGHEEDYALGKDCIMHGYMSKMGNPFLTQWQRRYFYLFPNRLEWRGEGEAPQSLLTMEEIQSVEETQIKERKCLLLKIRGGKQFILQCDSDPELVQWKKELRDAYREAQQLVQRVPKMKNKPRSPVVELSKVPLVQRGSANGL
row,SMILES,percent response (negative = inhibition)
1,Cc1cccc(N2CCN(C(=O)CCS(=O)(=O)c3ccc(Br)cc3)CC2C)c1 (stereo not given),-24%
2,CCc1ccccc1NC(=O)CCS(=O)(=O)c1ccc(Br)cc1,-26%
3,Cc1cc(=O)[nH]c(SCC(=O)NCc2ccco2)n1,-17.7%
4,O=C(CCS(=O)(=O)c1ccc(Br)cc1)Nc1cc(F)ccc1F,-37.5%
5,Cc1cc2ccccc2n1CCNC(=O)c1cccs1,-42.4%
6,COc1ccc(CNC(=O)CCS(=O)(=O)c2ccc(Br)cc2)cc1,-59.5%
7,O=C(CCS(=O)(=O)c1ccc(Br)cc1)NCCc1ccc(Cl)cc1,-35.6%
8,CCOc1ccc(CCNC(=O)CCS(=O)(=O)c2ccc(Br)cc2)cc1OCC,-69.7%
9,Cc1ccccc1NC(=O)CCS(=O)(=O)c1ccc(Br)cc1,-12.6%
10,O=C(O)C1CC(=O)N(c2ccc3c(c2)OCCO3)C1 (stereo not given),-77.7%
